Results taken from BindingDB's records for doi:10.1021/cb400452z (2013).

Legend:
[1] = molecular target: T1, Serine/threonine-protein kinase PKH2 [1-944] (Candida albicans (strain SC5314 / ATCC MYA-2876), UniProt Q5A3P6); experiment: AlphaScreen Assay; settings: pH 7.4
T1 construct: 1-944
T1 sequence (Q5A3P6 whole entry): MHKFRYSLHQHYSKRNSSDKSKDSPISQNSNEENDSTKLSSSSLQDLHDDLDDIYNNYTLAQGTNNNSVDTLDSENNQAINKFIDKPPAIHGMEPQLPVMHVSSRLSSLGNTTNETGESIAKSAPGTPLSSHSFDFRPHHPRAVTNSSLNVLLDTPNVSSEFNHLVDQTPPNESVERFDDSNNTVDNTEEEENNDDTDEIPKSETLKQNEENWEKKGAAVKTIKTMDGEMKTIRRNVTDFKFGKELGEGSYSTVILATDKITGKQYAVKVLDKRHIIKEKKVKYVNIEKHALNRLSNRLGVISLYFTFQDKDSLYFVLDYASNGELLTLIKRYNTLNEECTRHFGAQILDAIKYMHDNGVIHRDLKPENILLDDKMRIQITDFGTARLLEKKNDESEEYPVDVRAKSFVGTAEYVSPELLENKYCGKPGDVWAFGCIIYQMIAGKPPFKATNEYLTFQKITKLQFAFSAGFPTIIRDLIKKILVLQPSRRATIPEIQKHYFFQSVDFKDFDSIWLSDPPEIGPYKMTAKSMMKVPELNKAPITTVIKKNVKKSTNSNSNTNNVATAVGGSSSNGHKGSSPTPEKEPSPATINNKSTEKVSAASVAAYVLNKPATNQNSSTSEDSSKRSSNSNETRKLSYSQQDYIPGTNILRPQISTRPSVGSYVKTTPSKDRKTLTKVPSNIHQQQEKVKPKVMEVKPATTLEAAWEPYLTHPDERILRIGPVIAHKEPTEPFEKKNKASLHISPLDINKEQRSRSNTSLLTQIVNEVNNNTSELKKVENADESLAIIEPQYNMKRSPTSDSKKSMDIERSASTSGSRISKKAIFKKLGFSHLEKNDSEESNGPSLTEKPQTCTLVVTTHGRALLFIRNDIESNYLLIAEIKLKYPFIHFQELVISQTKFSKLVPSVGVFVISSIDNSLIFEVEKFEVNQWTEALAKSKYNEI
Experimental: (§1) The AlphaScreen Assay (Perkin Elmer) was performed according to the manufacturer's protocol in 384-well microtiter plates. Incubations were performed in white 384-well microtiter plates containing 20uL of a reaction mix (50mM Tris-HCl pH 7.4, 100mM NaCl, 1mM dithiotreitol, 0.01% (v/v) Tween-20, 0.1% (w/v) BSA, 1mM DMSO, 100nM His-CaPkh2 or 100nM His-PDK1, 50nM Biotin-PIFtide, and the indicated concentrations of unlabeled PIF-tide or small compounds) and 5uL of beads. 5uL of beads solution containing nickel chelate-coated acceptor beads and streptavidin-coated donor beads (20ug/mL final concentrations) was added to the reaction mix. The reaction mix and the beads were incubated in the dark for 45 min at RT and the emission of light from the acceptor beads was measured in the EnVision reader (Perkin Elmer) and analyzed using the GraphPad Prism software.

[2] = molecular target: T2, 3-phosphoinositide-dependent protein kinase 1 (Homo sapiens, UniProt O15530); experiment: AlphaScreen Assay; settings: pH 7.4; room temperature
T2 sequence (O15530 whole entry): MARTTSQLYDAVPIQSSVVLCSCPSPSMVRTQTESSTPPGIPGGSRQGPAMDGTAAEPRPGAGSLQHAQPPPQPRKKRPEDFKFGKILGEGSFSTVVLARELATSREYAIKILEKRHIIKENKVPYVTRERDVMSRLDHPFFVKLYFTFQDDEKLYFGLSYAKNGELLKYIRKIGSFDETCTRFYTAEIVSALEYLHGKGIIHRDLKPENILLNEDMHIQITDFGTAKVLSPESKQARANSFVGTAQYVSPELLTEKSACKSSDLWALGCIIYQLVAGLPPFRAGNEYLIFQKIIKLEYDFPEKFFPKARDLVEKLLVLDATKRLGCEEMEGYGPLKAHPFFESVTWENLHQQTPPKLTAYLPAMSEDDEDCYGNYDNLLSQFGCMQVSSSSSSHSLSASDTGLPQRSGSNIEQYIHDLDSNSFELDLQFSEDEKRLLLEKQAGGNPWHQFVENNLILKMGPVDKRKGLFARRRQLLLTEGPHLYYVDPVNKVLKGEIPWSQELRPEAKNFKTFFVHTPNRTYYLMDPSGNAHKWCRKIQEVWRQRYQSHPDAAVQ
Experimental: as §1

[3] = molecular target: T1, Serine/threonine-protein kinase PKH2 [1-944]; experiment: Protein Kinase Activity Assay; settings: pH 7.4; 0 °C
Experimental: (§2) A 20ul mix containing 50mM Tris pH 7.5, 0.05mg/ml BSA, 0.1% β-mercaptoethanol, 10mM MgCl2, 100μM [γ-P32]ATP (5-50cpm/pmol), 0.003% Brij, 150-500ng PDK1 or CaPkh2, and T308tide (from 0.1 to 1mM) was pre-incubated at room temperature (22¿C) for 15 minutes. The kinase reaction was initiated by the addition of the ATP-Mg mixture, followed by the addition of 5μl phosphoric acid (final concentration 0.01%) to stop the reaction. The PDK1 activity assay was performed in a 96 well format and 4μl aliquots spotted on p81 phosphocellulose papers (Whatmann) using ep motion 5070 (Eppendorf), washed in 0.01% phosphoric acid, dried, and then exposed and analyzed using PhophoImager technology (FLA-9000 Starion, Fujifilm). The specific activity of CaPkh2 and PDK1 was estimated using 100μM T308tide.

[4] = molecular target: T2, 3-phosphoinositide-dependent protein kinase 1; experiment: Protein Kinase Activity Assay; settings: pH 7.4; 0 °C
Experimental: as §2

SMILES	EC50 ([1]; room temperature) [µM]	EC50 [2] [µM]	IC50 [3] [µM]	IC50 [4] [µM]	EC50 [1] [µM]
O=C(O)CSC(CC(=O)c1ccc(Cl)cc1)c1ccccc1 (stereo not drawn)	85				
O=C(C[C@@H](c1ccccc1)C(C(=O)O)C(=O)O)c1ccc(C(F)(F)F)cc1	60	39			
O=C(O)CSC(CC(=O)c1ccc(Cl)cc1)c1ccccc1Sc1ccc(Cl)cc1 (stereo not drawn) [PS77]			17	38	44
O=C(CC(c1ccccc1)C(C(=O)O)C(=O)O)c1ccc(Cl)cc1 (stereo not drawn) [PS182]	66	26			
